Target: 5-hydroxytryptamine receptor 7 (Homo sapiens, UniProt P34969)
Experiment: Displacement of [3H] D-lysergic acid diethylamide from 5-HT7R (unknown origin) transfected in HEK293 cells incubated for 1.5 hrs by microbeta scintillation counter analysis

Chain of 5-hydroxytryptamine receptor 7 (P34969 whole entry): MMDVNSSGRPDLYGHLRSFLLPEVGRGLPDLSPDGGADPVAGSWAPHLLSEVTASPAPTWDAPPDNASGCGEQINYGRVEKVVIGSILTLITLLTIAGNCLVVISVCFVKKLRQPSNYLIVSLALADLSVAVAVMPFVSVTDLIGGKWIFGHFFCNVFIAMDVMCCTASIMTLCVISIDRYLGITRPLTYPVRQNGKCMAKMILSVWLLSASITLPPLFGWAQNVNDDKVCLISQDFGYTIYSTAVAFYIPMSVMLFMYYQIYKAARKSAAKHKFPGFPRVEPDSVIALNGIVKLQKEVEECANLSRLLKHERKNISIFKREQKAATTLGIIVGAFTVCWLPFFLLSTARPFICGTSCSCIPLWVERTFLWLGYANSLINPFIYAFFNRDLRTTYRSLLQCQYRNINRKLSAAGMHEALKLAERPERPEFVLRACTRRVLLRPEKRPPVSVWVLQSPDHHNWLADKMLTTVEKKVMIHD

SMILES | Ki [nM]
CCNCCc1ccc(Cl)c(-c2ccccc2OC)c1 | 1.58
CNCCc1ccc(Cl)c(-c2ccccc2OC)c1 | 2.8
